Experimental data: the supplement of paper PMC10307832

How the values were obtained:
Test in all cases: relative viability (nuclei count vs DMSO), 5 days (fraction); higher = more cells survive
CUDC-101 + Palbociclib = compound: C#Cc1cccc(Nc2ncnc3cc(OC)c(OCCCCCCC(=O)NO)cc23)c1 [CUDC-101] + CC(=O)c1c(C)c2cnc(Nc3ccc(N4CCNCC4)cn3)nc2n(C2CCCC2)c1=O [Palbociclib] (partner 0.5 µM)
Outline: (§1)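 Dosing by pin tool came one day after lung cancer cell lines were seeded in 1536-well plates, using either one drug or a fixed anchor-drug dose plus five library-drug doses (not always all listed) in √10 steps. After 5 days, nuclei were counted on 4× images. Relative viability is treated-well nuclei count divided by vehicle-well nuclei count, and values are medians of duplicate plates.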

CUDC-101 + Linsitinib = compound: C#Cc1cccc(Nc2ncnc3cc(OC)c(OCCCCCCC(=O)NO)cc23)c1 [CUDC-101] + C[C@]1(O)C[C@@H](c2nc(-c3ccc4ccc(-c5ccccc5)nc4c3)c3c(N)nccn32)C1 [Linsitinib] (partner 1 µM)
Outline: as §1

NVP-TAE684 + Alpelisib = compound: COc1cc(N2CCC(N3CCN(C)CC3)CC2)ccc1Nc1ncc(Cl)c(Nc2ccccc2S(=O)(=O)C(C)C)n1 [NVP-TAE684] + Cc1nc(NC(=O)N2CCC[C@H]2C(N)=O)sc1-c1ccnc(C(C)(C)C(F)(F)F)c1 [Alpelisib] (partner 2 µM)
Outline: as §1

Vandetanib + Decitabine = compound: COc1cc2/c(=N/c3ccc(Br)cc3F)nc[nH]c2cc1OCC1CCN(C)CC1 [Vandetanib] + Nc1ncn([C@H]2C[C@H](O)[C@@H](CO)O2)c(=O)n1 [Decitabine] (partner 2 µM)
Outline: as §1

## UMC-11
CUDC-101 + Palbociclib; first compound 0.01 µM
  relative viability: 0.346
CUDC-101 + Palbociclib; first compound 0.03162 µM
  relative viability: 0.375
CUDC-101 + Palbociclib; first compound 0.1 µM
  relative viability: 0.323
CUDC-101 + Palbociclib; first compound 0.3162 µM
  relative viability: 0.277
CUDC-101 + Palbociclib; first compound 1 µM
  relative viability: 0.228
CUDC-101 + Linsitinib; first compound 0.01 µM
  relative viability: 1.07
CUDC-101 + Linsitinib; first compound 0.03162 µM
  relative viability: 0.97
CUDC-101 + Linsitinib; first compound 0.1 µM
  relative viability: 1.03
CUDC-101 + Linsitinib; first compound 0.3162 µM
  relative viability: 0.864
CUDC-101 + Linsitinib; first compound 1 µM
  relative viability: 0.208
NVP-TAE684 + Alpelisib; first compound 0.2 µM
  relative viability: 0.961
NVP-TAE684 + Alpelisib; first compound 0.6325 µM
  relative viability: 0.915
NVP-TAE684 + Alpelisib; first compound 2 µM
  relative viability: 0.213
Vandetanib + Decitabine; first compound 0.02 µM
  relative viability: 0.595
Vandetanib + Decitabine; first compound 0.06325 µM
  relative viability: 0.553
Vandetanib + Decitabine; first compound 0.2 µM
  relative viability: 0.665
Vandetanib + Decitabine; first compound 0.6325 µM
  relative viability: 0.528
Vandetanib + Decitabine; first compound 2 µM
  relative viability: 0.614
